Source: US7901667B2, “Bridgehead labelled compounds and methods of using the same” (Mallinckrodt Inc., priority 2005, dated 2011)

Columns and labels:
[1] = X = Tosylate, relative to tert-Butyl, cited from earlier work; for Relative rate of hydrolysis, calc.: calculated; for Relative rate of hydrolysis, exp.: experimental
[2] = biological target: T1, human recombinant human 5-HT1A receptor subtype (Homo sapiens, UniProt P08908); experiment: competitive binding assay with [^3H]8-OH-DPAT on membranes of HEK-293 EBNA-cells
T1 construct: purchased Perkin Elmer (Boston, USA); host or cells: HEK-293 EBNA cells (membrane suspension)
T1 sequence (P08908 1-422): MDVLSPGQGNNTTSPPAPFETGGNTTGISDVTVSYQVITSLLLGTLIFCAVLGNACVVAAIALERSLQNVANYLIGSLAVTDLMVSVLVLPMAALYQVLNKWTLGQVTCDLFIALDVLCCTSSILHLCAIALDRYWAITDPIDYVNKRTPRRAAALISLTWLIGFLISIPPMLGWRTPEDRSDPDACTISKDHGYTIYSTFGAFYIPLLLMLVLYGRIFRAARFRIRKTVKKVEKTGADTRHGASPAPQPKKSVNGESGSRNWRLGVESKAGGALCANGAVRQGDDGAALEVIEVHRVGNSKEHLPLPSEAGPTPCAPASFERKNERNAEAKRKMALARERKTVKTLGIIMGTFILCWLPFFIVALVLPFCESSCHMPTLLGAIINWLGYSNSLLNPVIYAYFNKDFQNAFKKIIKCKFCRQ
Procedure: A membrane suspension from HEK-293 EBNA-cells expressing the human recombinant human 5-HT1A receptor subtype, was obtained from Perkin Elmer (Boston, USA). The protein concentration of the original suspension was 36.8 mg/mL.
Aliquots of these diluted membranes (factor 1:20) were incubated on microplates for 120 min at 37° C. in the dark. […] The incubation buffer contained 50 mM TRIS-HCl and 5 mM MgSO4 (pH to 7.4 at 25° C.). […] Non-specific binding was determined using 5-hydroxytryptamine (5-HT, serotonin) as a competitor in a concentration of 10 μM.
After the incubation period, the reaction was rapidly terminated by vacuum filtration over a GF/C glass fiber filters that were incorporated in the microplates and that were presoaked in 0.5% polyethylenimine (Sigma-Aldrich, Munich, Germany), and washed 5 times with ice-cold TRIS-HCl buffer. 25 μL of scintillation fluid (MicroScint™, Perkin Elmer, Boston, USA) were added to each well, after which the microplates were counted in a liquid scintillation counter (Topcount, Packard).
For each candidate tracer, the inhibition constant (Ki) was calculated from the […] for the 5-HT1A receptor with non-linear regression curve fitting using the computer program Graphpad Prism® (version 3.02).

[3] = at 60 min, relative to whole brain average; cited from earlier work
[4] = system: α1-adrenoceptors; settings: cited from earlier work
[5] = amide hydrolysis; cited from earlier work
[6] = biological target: T2, 5-HT1A receptors (Homo sapiens, UniProt P08908); settings: cited from earlier work
T2 sequence (P08908 1-422): T1 sequence (P08908 1-422)

Compound | Relative rate of hydrolysis, calc. [1] | Relative rate of hydrolysis, exp. [1] | also measured
Cc1ccc(S(=O)(=O)OC23C4C5C6C4C2C6C53)cc1 (stereo not drawn) [Cubyl] | <10^−25 | 10^−10 | 
Cc1ccc(S(=O)(=O)OC23CC4CC(CC(C4)C2)C3)cc1 [1-Adamantyl] | 10^−4 | 10^−3 | 
COc1ccccc1N1CCN(CCN(C(=O)C23C4C5C2C2C3C4C52I)c2ccccn2)CC1 (stereo not drawn) [iodocubyl-WAY] |  |  | affinity towards the human 5-HT1A (Ki) ([2]; [^3H]8-OH-DPAT 1.1 nM, 120 min at 37° C., n=4, values only in FIG. 6): subnanomolar range; rank of affinity among the bridgehead iodo WAY derivatives ([2]; iodobicyclooctyl, iodoadamantyl, iodonorbornyl and iodocubyl compared, FIG. 6): highest affinity
COc1ccccc1N1CCN(CCN(C(=O)C2CCC(F)CC2)c2ccccn2)CC1 (stereo not drawn) [FCWAY] |  |  | skull uptake of [^18F] [3]: twice the whole brain average
COc1ccccc1N1CCN(CCN(C(=O)c2ccc(F)cc2)c2ccccn2)CC1 [MPPF] |  |  | affinity for the α1-adrenoceptors [4]: quite high affinity
Cc1ccc(S(=O)(=O)OC23CCC(CC2)C3)cc1 [1-Norbornyl] | 10^−14 | 10^−13 | 
Cc1ccc(S(=O)(=O)OC23CCC(CC2)CC3)cc1 [1-Bicyclo[2.2.2]octyl] | 10^−8 | 10^−7 | 
COc1ccccc1N1CCN(CCN(C(=O)c2ccc([123I])cc2)c2ccccn2)CC1 [MPPI] |  |  | affinity for the α1-adrenoceptors [4]: quite high affinity
COc1ccccc1N1CCN(CCN(C(=O)C2CC3CCC2CC3)c2ccccn2)CC1 (stereo not drawn) [CPC-222] |  |  | stability towards hydrolysis [5]: stable towards hydrolysis; affinity with regard to WAY-100635 [6]: comparable affinity
